Tests used:
[1] = target: T1, Squalene Synthetase (Rattus norvegicus, UniProt Q02769); test: Inhibition of Squalene Synthetase (formation of squalene from tritiated farnesyl pyrophosphate, rat liver microsomal protein); type: biochemical; conditions: 20 μM 1-[3H]-farnesyl pyrophosphate, 15 minutes, 37° C., read-out: IC50 (concentration which results in a 50% inhibition of squalene production)
T1 construct: from tissue; host or cells: rat liver microsomes
T1 sequence (Q02769 1-416): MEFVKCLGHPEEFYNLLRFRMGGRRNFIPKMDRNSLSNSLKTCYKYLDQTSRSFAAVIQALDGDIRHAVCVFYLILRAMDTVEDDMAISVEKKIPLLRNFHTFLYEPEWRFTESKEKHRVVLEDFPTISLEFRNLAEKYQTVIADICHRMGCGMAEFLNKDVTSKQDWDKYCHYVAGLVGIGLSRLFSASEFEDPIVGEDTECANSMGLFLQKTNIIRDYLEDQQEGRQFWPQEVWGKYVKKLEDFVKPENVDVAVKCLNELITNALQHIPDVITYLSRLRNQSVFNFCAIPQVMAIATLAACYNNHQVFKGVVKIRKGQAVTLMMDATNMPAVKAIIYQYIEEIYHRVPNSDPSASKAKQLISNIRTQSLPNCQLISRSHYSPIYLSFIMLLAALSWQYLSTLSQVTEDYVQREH
Procedure: (a) Inhibition of Squalene Synthetase
In this test, the ability of a compound to prevent the formation of squalene from a radioactive substrate (tritiated farnesyl pyrophosphate) is assessed.
The test compound is incubated at a concentration of 25 micromolar in 200 μl of a buffered solution containing potassium phosphate (50 mM), MgCl2 (4.95 mM), KF (9.9 mM), NADPH (0.9 mM) and rat liver microsomal protein (20 μg). Rat liver microsomes are prepared by the method described in published European Patent Application No. 324,421 and stored in liquid nitrogen prior to assay. Assay vials are kept at 37° C. throughout the incubation.
The reaction is started with the addition of the substrate (1-[^3 H]-farnesyl pyrophosphate), final concentration 20 μM, and stopped after 15 minutes reaction time with the addition of 50 μl of 4% KOH. The reaction products are separated from unreacted substrate after application to a C-18 octadecyl 1ccBond column (Analytichem Int product No. 617101). An aqueous fraction is eluted with 250 μl of 0.1M KOH. Squalene is then eluted with 1.0 ml 10% ethylacetate in hexane and radioactivity determined. The difference in radioactivity in the presence and absence of the test compound is used to determine the level of inhibition. […] The IC50 can then be determined from a plot of percentage inhibition against concentration of test compound.

[2] = test system: de novo hepatic cholesterol synthesis; test: Acute Rat Cholesterol Synthesis Assay (de novo hepatic cholesterol synthesis from exogenously administered 14C-acetate); type: in vivo; conditions: female rats, oral gavage, ip or iv (route not specified), 14C-acetate ip after 1 hour, blood sample a further hour later
Procedure: (b) Acute Rat Cholesterol Synthesis Assay
This is an acute in vivo test in the rat to measure de novo hepatic cholesterol synthesis from exogenously administered ^14 C-acetate.
Female rats (35-55 g) are housed in reverse lighting conditions (red light from 0200h-1400h) for a period of about 2 weeks prior to test. Animals are allowed free access to chow and drinking water throughout this period. At test, animals should weigh 125-150 g.
Test compounds may be administered by oral gavage, dissolved or suspended in 0.5% polysorbate, or by ip or iv dosing. Control animals receive vehicle alone. After 1 hour the rats are injected ip with 25 μCi [2-^14 C]-acetate (NEN DUPONT. specific activity, 45-60 mCi/mmol NEC-085H, or AMERSHAM specific activity, 50-60 mCi/mmol CFA 14) in a volume of 0.25 ml saline (100 μCi/ml). After a further hour, rats are terminally anaesthetised with halothane and a blood sample obtained from the abdominal vena cava.
1 ml of plasma is lyophilised and then saponified in 2 ml ethanolic KOH (1 part 33% KOH, 9 parts ethanol) at 75° C. for 2 hours. After addition of an equal quantity of water, non-saponifiable lipids are extracted with two 5 ml volumes of hexane. The hexane extracts are evaporated to dryness and the residues dissolved in ethanol to determine cholesterol specific radioactivity. ED50 values can be determined in the standard way.

OC1(c2cccc(-c3ccccc3)c2)CN2CCC1CC2 (centres unmarked) [Example 3, 3-(biphenyl-3-yl)-3-hydroxyquinuclidine]
IC50 [1]: 0.6 µM

OC1(c2ccc(-c3ccc(F)cc3)cc2)CN2CCC1CC2 (centres unmarked) [Example 6, 3-[4'-fluorobiphenyl-4-yl]-3-hydroxyquinuclidine]
ED50 [2]: 8 mg/kg
